From patent US12049450B2, “Pyridyloxy-carboxylate derivative and preparation method therefor, herbicidal composition, and use” (Qingdao Kingagroot Chemical Compound Co., Ltd., priority 2018, dated 2024) come the findings set out here.

Experiment in all cases: Post-emergence test experiment (greenhouse pot, spray at 2-3 leaf stage)
Holding throughout (type): in vivo
Holding throughout (conditions): 1000 g/ha; post-emergence spray at 2-3 leaf stage; assessed after 3 weeks; fresh weight inhibition rate

One assay relates to Abutilon theophrasti. An outline of the steps:
(§1)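 Weed seeds sown in soil-filled pots in greenhouse, sprayed at 2-3 leaf stage (2 weeks after sowing) with compound in acetone/tween-80 plus methyl oleate emulsible concentrate (1.5 L/ha) diluted in water. Fresh-weight growth inhibition scored after 3 weeks on 0-5 scale (5: >85%, 0: <5%).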

A further assay concerns Digitaria sanguinalis. The essentials: as §1
The next assay relates to Echinochloa crusgalli. The essentials: as §1
For a further assay, the system named is Galium spurium. An outline of the steps: as §1
In the next assay the test system is Monochoria vaginalis. The essentials: as §1

Turning to `CC(Oc1nc(F)c(Cl)c(N)c1Cl)C(=O)OCc1cncnc1` (stereo not shown) [Compound 124], the “Activity level (growth inhibition rate) Abutilon theophrasti” value in the assay with Abutilon theophrasti was 5 (Level 5: the growth inhibition rate is greater than 85%). For the same compound, the “Activity level (growth inhibition rate) Digitaria sanguinalis” value in the assay on Digitaria sanguinalis was 5 (Level 5: the growth inhibition rate is greater than 85%). In the assay with Echinochloa crusgalli, the “Activity level (growth inhibition rate) Echinochloa crusgalli” value is listed as 5 (Level 5: the growth inhibition rate is greater than 85%). In addition, the “Activity level (growth inhibition rate) Galium spurium” value in the assay with Galium spurium is reported as 5 (Level 5: the growth inhibition rate is greater than 85%). Moreover, in the assay on Monochoria vaginalis, the “Activity level (growth inhibition rate) Monochoria Vaginalis” value was 5 (Level 5: the growth inhibition rate is greater than 85%).
Regarding `Cc1cccc(CSC(=O)C(C)Oc2nc(F)c(Cl)c(N)c2Cl)c1` (stereo not shown) [Compound 219], the “Activity level (growth inhibition rate) Abutilon theophrasti” value in the assay with Abutilon theophrasti is given as 5 (Level 5: the growth inhibition rate is greater than 85%). Also, the “Activity level (growth inhibition rate) Digitaria sanguinalis” value with Digitaria sanguinalis was 5 (Level 5: the growth inhibition rate is greater than 85%). The “Activity level (growth inhibition rate) Echinochloa crusgalli” value in the assay with Echinochloa crusgalli is reported as 5 (Level 5: the growth inhibition rate is greater than 85%). Further, in the assay with Galium spurium, the “Activity level (growth inhibition rate) Galium spurium” value is 5 (Level 5: the growth inhibition rate is greater than 85%). For the same compound, the “Activity level (growth inhibition rate) Monochoria Vaginalis” value in the assay on Monochoria vaginalis is 5 (Level 5: the growth inhibition rate is greater than 85%).
For the compound `CC(Oc1nc(F)c(Cl)c(N)c1Cl)C(=O)OCc1ccccc1Cl` (stereo not shown) [Compound 202], the “Activity level (growth inhibition rate) Abutilon theophrasti” value in the assay with Abutilon theophrasti is given as 5 (Level 5: the growth inhibition rate is greater than 85%). Further, the “Activity level (growth inhibition rate) Digitaria sanguinalis” value in the assay with Digitaria sanguinalis is listed as 5 (Level 5: the growth inhibition rate is greater than 85%). Moreover, the “Activity level (growth inhibition rate) Echinochloa crusgalli” value in the assay on Echinochloa crusgalli was 5 (Level 5: the growth inhibition rate is greater than 85%). Besides, in the assay on Galium spurium, the “Activity level (growth inhibition rate) Galium spurium” value is on record as 5 (Level 5: the growth inhibition rate is greater than 85%). In the assay on Monochoria vaginalis, the “Activity level (growth inhibition rate) Monochoria Vaginalis” value is recorded as 5 (Level 5: the growth inhibition rate is greater than 85%).
For `CC(Oc1nc(F)c(Cl)c(N)c1Cl)C(=O)SCc1nc2ccccc2[nH]1` (stereo not shown) [Compound 170], the “Activity level (growth inhibition rate) Abutilon theophrasti” value in the assay on Abutilon theophrasti was 5 (Level 5: the growth inhibition rate is greater than 85%). For the same compound, the “Activity level (growth inhibition rate) Digitaria sanguinalis” value in the assay on Digitaria sanguinalis is listed as 5 (Level 5: the growth inhibition rate is greater than 85%). Further, the “Activity level (growth inhibition rate) Echinochloa crusgalli” value with Echinochloa crusgalli is on record as 5 (Level 5: the growth inhibition rate is greater than 85%). The “Activity level (growth inhibition rate) Galium spurium” value with Galium spurium is reported as 5 (Level 5: the growth inhibition rate is greater than 85%). The “Activity level (growth inhibition rate) Monochoria Vaginalis” value in the assay with Monochoria vaginalis is reported as 5 (Level 5: the growth inhibition rate is greater than 85%).
In the case of `CC(Oc1nc(F)c(Cl)c(N)c1Cl)C(=O)OCc1cccc(F)c1` (stereo not shown) [Compound 198], the “Activity level (growth inhibition rate) Abutilon theophrasti” value with Abutilon theophrasti is given as 5 (Level 5: the growth inhibition rate is greater than 85%). For the same compound, the “Activity level (growth inhibition rate) Digitaria sanguinalis” value in the assay with Digitaria sanguinalis is 5 (Level 5: the growth inhibition rate is greater than 85%). Besides, the “Activity level (growth inhibition rate) Echinochloa crusgalli” value with Echinochloa crusgalli was 5 (Level 5: the growth inhibition rate is greater than 85%). In addition, the “Activity level (growth inhibition rate) Galium spurium” value in the assay with Galium spurium is 5 (Level 5: the growth inhibition rate is greater than 85%). Besides, the “Activity level (growth inhibition rate) Monochoria Vaginalis” value in the assay with Monochoria vaginalis was 5 (Level 5: the growth inhibition rate is greater than 85%).
For the compound `CC(Oc1nc(F)c(Cl)c(N)c1Cl)C(=O)OCc1ncno1` (stereo not shown) [Compound 151], in the assay with Abutilon theophrasti, the “Activity level (growth inhibition rate) Abutilon theophrasti” value is 5 (Level 5: the growth inhibition rate is greater than 85%). In the assay with Digitaria sanguinalis, the “Activity level (growth inhibition rate) Digitaria sanguinalis” value is on record as 5 (Level 5: the growth inhibition rate is greater than 85%). In the assay with Echinochloa crusgalli, the “Activity level (growth inhibition rate) Echinochloa crusgalli” value was 5 (Level 5: the growth inhibition rate is greater than 85%). Also, the “Activity level (growth inhibition rate) Galium spurium” value in the assay on Galium spurium is recorded as 5 (Level 5: the growth inhibition rate is greater than 85%). Moreover, the “Activity level (growth inhibition rate) Monochoria Vaginalis” value in the assay with Monochoria vaginalis is given as 5 (Level 5: the growth inhibition rate is greater than 85%).
Turning to `Cc1sc(C)c(COC(=O)C(C)Oc2nc(F)c(Cl)c(N)c2Cl)c1C` (stereo not shown) [Compound 155], the “Activity level (growth inhibition rate) Abutilon theophrasti” value with Abutilon theophrasti was 5 (Level 5: the growth inhibition rate is greater than 85%). Moreover, the “Activity level (growth inhibition rate) Digitaria sanguinalis” value in the assay with Digitaria sanguinalis is listed as 5 (Level 5: the growth inhibition rate is greater than 85%). The “Activity level (growth inhibition rate) Echinochloa crusgalli” value with Echinochloa crusgalli was 5 (Level 5: the growth inhibition rate is greater than 85%). In addition, the “Activity level (growth inhibition rate) Galium spurium” value with Galium spurium is reported as 5 (Level 5: the growth inhibition rate is greater than 85%). The “Activity level (growth inhibition rate) Monochoria Vaginalis” value in the assay on Monochoria vaginalis was 5 (Level 5: the growth inhibition rate is greater than 85%).
For the compound `Cc1cccc(COC(=O)C(C)Oc2nc(F)c(Cl)c(N)c2Cl)c1` (stereo not shown) [Compound 196], the “Activity level (growth inhibition rate) Abutilon theophrasti” value in the assay on Abutilon theophrasti is given as 5 (Level 5: the growth inhibition rate is greater than 85%). For the same compound, the “Activity level (growth inhibition rate) Digitaria sanguinalis” value with Digitaria sanguinalis was 5 (Level 5: the growth inhibition rate is greater than 85%). In addition, the “Activity level (growth inhibition rate) Echinochloa crusgalli” value with Echinochloa crusgalli was 5 (Level 5: the growth inhibition rate is greater than 85%). For the same compound, the “Activity level (growth inhibition rate) Galium spurium” value in the assay on Galium spurium is 5 (Level 5: the growth inhibition rate is greater than 85%). The “Activity level (growth inhibition rate) Monochoria Vaginalis” value in the assay with Monochoria vaginalis is 5 (Level 5: the growth inhibition rate is greater than 85%).
Consider `Cc1c(OC(C)C(=O)OCc2ccccc2)ncc(Cl)c1N` (stereo not shown) [Compound 21], for which, in the assay with Abutilon theophrasti, the “Activity level (growth inhibition rate) Abutilon theophrasti” value is given as 5 (Level 5: the growth inhibition rate is greater than 85%). Further, the “Activity level (growth inhibition rate) Digitaria sanguinalis” value in the assay on Digitaria sanguinalis is on record as 5 (Level 5: the growth inhibition rate is greater than 85%). In addition, the “Activity level (growth inhibition rate) Echinochloa crusgalli” value with Echinochloa crusgalli was 5 (Level 5: the growth inhibition rate is greater than 85%). Also, in the assay with Galium spurium, the “Activity level (growth inhibition rate) Galium spurium” value is 5 (Level 5: the growth inhibition rate is greater than 85%). For the same compound, the “Activity level (growth inhibition rate) Monochoria Vaginalis” value in the assay with Monochoria vaginalis is given as 5 (Level 5: the growth inhibition rate is greater than 85%).
Turning to `CC(Oc1nc(F)c(Cl)c(N)c1Cl)C(=O)OCc1ccc(N(C)C)cc1` (stereo not shown) [Compound 93], the “Activity level (growth inhibition rate) Abutilon theophrasti” value in the assay on Abutilon theophrasti is on record as 5 (Level 5: the growth inhibition rate is greater than 85%). In the assay on Digitaria sanguinalis, the “Activity level (growth inhibition rate) Digitaria sanguinalis” value is recorded as 5 (Level 5: the growth inhibition rate is greater than 85%). For the same compound, the “Activity level (growth inhibition rate) Echinochloa crusgalli” value with Echinochloa crusgalli is 5 (Level 5: the growth inhibition rate is greater than 85%). The “Activity level (growth inhibition rate) Galium spurium” value in the assay on Galium spurium is 5 (Level 5: the growth inhibition rate is greater than 85%). Further, the “Activity level (growth inhibition rate) Monochoria Vaginalis” value in the assay on Monochoria vaginalis is 5 (Level 5: the growth inhibition rate is greater than 85%).
For `CC(Oc1nc(F)c(Cl)c(N)c1Cl)C(=O)SCc1ccccc1C(F)(F)F` (stereo not shown) [Compound 232], the “Activity level (growth inhibition rate) Abutilon theophrasti” value in the assay with Abutilon theophrasti was 5 (Level 5: the growth inhibition rate is greater than 85%). Also, in the assay on Digitaria sanguinalis, the “Activity level (growth inhibition rate) Digitaria sanguinalis” value is on record as 5 (Level 5: the growth inhibition rate is greater than 85%). The “Activity level (growth inhibition rate) Echinochloa crusgalli” value in the assay on Echinochloa crusgalli was 5 (Level 5: the growth inhibition rate is greater than 85%). For the same compound, in the assay with Galium spurium, the “Activity level (growth inhibition rate) Galium spurium” value is recorded as 5 (Level 5: the growth inhibition rate is greater than 85%). Moreover, the “Activity level (growth inhibition rate) Monochoria Vaginalis” value in the assay with Monochoria vaginalis was 5 (Level 5: the growth inhibition rate is greater than 85%).
Turning to `CC(Oc1nc(F)c(Cl)c(N)c1Cl)C(=O)OCc1cccc(Cl)c1Cl` (stereo not shown) [Compound 80], the “Activity level (growth inhibition rate) Abutilon theophrasti” value in the assay on Abutilon theophrasti is on record as 5 (Level 5: the growth inhibition rate is greater than 85%). For the same compound, the “Activity level (growth inhibition rate) Digitaria sanguinalis” value in the assay with Digitaria sanguinalis is on record as 5 (Level 5: the growth inhibition rate is greater than 85%). The “Activity level (growth inhibition rate) Echinochloa crusgalli” value in the assay on Echinochloa crusgalli is on record as 5 (Level 5: the growth inhibition rate is greater than 85%). The “Activity level (growth inhibition rate) Galium spurium” value in the assay on Galium spurium is 5 (Level 5: the growth inhibition rate is greater than 85%). For the same compound, in the assay with Monochoria vaginalis, the “Activity level (growth inhibition rate) Monochoria Vaginalis” value was 5 (Level 5: the growth inhibition rate is greater than 85%).
With `CCC(=O)Cc1ccc(CSC(=O)C(C)Oc2nc(F)c(Cl)c(N)c2Cl)cc1` (stereo not shown) [Compound 103], the “Activity level (growth inhibition rate) Abutilon theophrasti” value with Abutilon theophrasti was 5 (Level 5: the growth inhibition rate is greater than 85%). For the same compound, in the assay on Digitaria sanguinalis, the “Activity level (growth inhibition rate) Digitaria sanguinalis” value is given as 5 (Level 5: the growth inhibition rate is greater than 85%). Also, in the assay on Echinochloa crusgalli, the “Activity level (growth inhibition rate) Echinochloa crusgalli” value was 5 (Level 5: the growth inhibition rate is greater than 85%). In addition, the “Activity level (growth inhibition rate) Galium spurium” value in the assay on Galium spurium is recorded as 5 (Level 5: the growth inhibition rate is greater than 85%). For the same compound, the “Activity level (growth inhibition rate) Monochoria Vaginalis” value in the assay with Monochoria vaginalis is listed as 5 (Level 5: the growth inhibition rate is greater than 85%).
Turning to `CC(Oc1nc(F)c(Cl)c(N)c1Cl)C(=O)OCc1ccc(C2CC2Cl)cc1` (stereo not shown) [Compound 102], in the assay with Abutilon theophrasti, the “Activity level (growth inhibition rate) Abutilon theophrasti” value is on record as 5 (Level 5: the growth inhibition rate is greater than 85%). Further, the “Activity level (growth inhibition rate) Digitaria sanguinalis” value in the assay on Digitaria sanguinalis is given as 5 (Level 5: the growth inhibition rate is greater than 85%). Also, the “Activity level (growth inhibition rate) Echinochloa crusgalli” value with Echinochloa crusgalli is 5 (Level 5: the growth inhibition rate is greater than 85%). In the assay on Galium spurium, the “Activity level (growth inhibition rate) Galium spurium” value is given as 5 (Level 5: the growth inhibition rate is greater than 85%). Besides, the “Activity level (growth inhibition rate) Monochoria Vaginalis” value in the assay on Monochoria vaginalis is 5 (Level 5: the growth inhibition rate is greater than 85%).
